Experimental data taken from patent US10750743B2, “Pyridazinone herbicides” (E.I. DU PONT DE NEMOURS AND COMPANY, priority 2015, dated 2020).

Key:
Format in all cases: in vivo
[1] = test system: wheat (Triticum aestivum); assay: Test A postemergence application, visual injury rating; conditions: 0 to 100 scale, 0 no effect, 100 complete control
Outline: (§1)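 Seeds sown in a loam soil–sand blend received a directed preemergence soil spray of test chemical in a non-phytotoxic solvent mixture with surfactant. Postemergence plants were sprayed at 2 to 10 cm, one- to two-leaf stage. After approximately 10 d in greenhouse, injury was visually rated 0 (no effect) to 100 (complete control) against untreated controls.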

[2] = test system: ragweed (common ragweed, Ambrosia elatior); assay: as above; conditions: 0 to 100 scale, 0 no effect, 100 complete control
Outline: as §1

[3] = test system: blackgrass (Alopecurus myosuroides); assay: as above; conditions: 0 to 100 scale, 0 no effect, 100 complete control
Outline: as §1

[4] = test system: ryegrass, It. (Italian ryegrass, Lolium multiflorum); assay: as above; conditions: 0 to 100 scale, 0 no effect, 100 complete control
Outline: as §1

[5] = test system: galium (catchweed bedstraw, Galium aparine); assay: as above; conditions: 0 to 100 scale, 0 no effect, 100 complete control
Outline: as §1

kochia (Kochia scoparia) [6] = assay: as above; conditions: 0 to 100 scale, 0 no effect, 100 complete control
Outline: as §1

[7] = test system: pigweed (Amaranthus retroflexus); assay: as above; conditions: 0 to 100 scale, 0 no effect, 100 complete control
Outline: as §1

corn (Zea mays) = assay: as above; conditions: 0 to 100 scale, 0 no effect, 100 complete control
Outline: as §1

[8] = test system: barnyardgrass (Echinochloa crus-galli); assay: as above; conditions: 0 to 100 scale, 0 no effect, 100 complete control
Outline: as §1

Foxtail, Green [9] = assay: as above; conditions: 0 to 100 scale, 0 no effect, 100 complete control
rice (Oryza sativa) = assay: Test B flooded paddy test, visual rating; conditions: Flood, 250 g ai/ha, applied to paddy water, rated after 13 to 15 d
Outline: (§2)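 Plants at the 2-leaf stage were flooded to 3 cm above soil, and test compounds were applied directly into the paddy water, which was held at that depth throughout. After 13 to 15 d in a greenhouse, injury was rated visually against untreated controls on a 0–100 scale (0 no effect, 100 complete control).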

[10] = test system: barnyardgrass (Echinochloa crus-galli); assay: Test B flooded paddy test, visual rating; conditions: Flood, 250 g ai/ha, applied to paddy water, rated after 13 to 15 d
Outline: as §2

[11] = test system: ducksalad (Heteranthera limosa); assay: Test B flooded paddy test, visual rating; conditions: Flood, 250 g ai/ha, applied to paddy water, rated after 13 to 15 d
Outline: as §2

[12] = test system: sedge, umbrella (small-flower umbrella sedge, Cyperus difformis); assay: Test B flooded paddy test, visual rating; conditions: Flood, 250 g ai/ha, applied to paddy water, rated after 13 to 15 d
Outline: as §2

[13] = test system: ragweed (common ragweed, Ambrosia elatior); assay: Test A preemergence, directed soil spray, visual injury rating; conditions: 0 is no effect, 100 is complete control
Outline: as §1

[14] = test system: ryegrass, It. (Italian ryegrass, Lolium multiflorum); assay: as above; conditions: 0 is no effect, 100 is complete control
Outline: as §1

kochia (Kochia scoparia) [15] = assay: as above; conditions: 0 is no effect, 100 is complete control
Outline: as §1

[16] = test system: pigweed (Amaranthus retroflexus); assay: as above; conditions: 0 is no effect, 100 is complete control
Outline: as §1

[17] = test system: barnyardgrass (Echinochloa crus-galli); assay: as above; conditions: 0 is no effect, 100 is complete control
Outline: as §1

Foxtail, Green [18] = assay: as above; conditions: 0 is no effect, 100 is complete control

| SMILES | Wheat plant response rating ([1]; 31 g ai/ha) | Wheat plant response rating ([1]; 125 g ai/ha) | Ragweed plant response rating ([2]; 31 g ai/ha) | Ragweed plant response rating ([2]; 125 g ai/ha) | Blackgrass plant response rating ([3]; 31 g ai/ha) | Blackgrass plant response rating ([3]; 125 g ai/ha) | Ryegrass, It. plant response rating ([4]; 31 g ai/ha) | Ryegrass, It. plant response rating ([4]; 125 g ai/ha) | Galium plant response rating ([5]; 31 g ai/ha) | Galium plant response rating ([5]; 125 g ai/ha) | Kochia plant response rating (kochia (Kochia scoparia) [6]; 31 g ai/ha) | Kochia plant response rating (kochia (Kochia scoparia) [6]; 125 g ai/ha) | Pigweed plant response rating ([7]; 31 g ai/ha) | Pigweed plant response rating ([7]; 125 g ai/ha) | Corn plant response rating (corn (Zea mays); 31 g ai/ha) | Corn plant response rating (corn (Zea mays); 125 g ai/ha) | Barnyardgrass plant response rating ([8]; 31 g ai/ha) | Barnyardgrass plant response rating ([8]; 125 g ai/ha) | Foxtail, Green plant response rating (Foxtail, Green [9]; 31 g ai/ha) | Foxtail, Green plant response rating (Foxtail, Green [9]; 125 g ai/ha) | also measured |
| --- | --- | --- | --- | --- | --- | --- | --- | --- | --- | --- | --- | --- | --- | --- | --- | --- | --- | --- | --- | --- | --- |
| Cn1ncc(O)c(-c2cccc3cnccc23)c1=O [Compound 34] | 0 | 0 | 0 | 0 | 0 | 0 | 0 | 0 | 0 | 0 | 0 | 0 | 0 | 0 | 0 | 0 | 0 | 0 | 0 | 0 | Rice plant response rating (0 to 100 scale, 0 is no effect, 100 is complete control) (rice (Oryza sativa)): 0; Barnyardgrass plant response rating (0 to 100 scale, 0 is no effect, 100 is complete control) [10]: 0; Ducksalad plant response rating (0 to 100 scale, 0 is no effect, 100 is complete control) [11]: 0; Sedge, Umbrella plant response rating (0 to 100 scale, 0 is no effect, 100 is complete control) [12]: 0; Plant response rating (0 to 100 scale), Ragweed ([13]; 31 g ai/ha): 0; Plant response rating (0 to 100 scale), Ragweed ([13]; 125 g ai/ha): 0; Plant response rating (0 to 100 scale), Ryegrass, It. ([14]; 31 g ai/ha): 0; Plant response rating (0 to 100 scale), Ryegrass, It. ([14]; 125 g ai/ha): 0; Plant response rating (0 to 100 scale), Kochia (kochia (Kochia scoparia) [15]; 31 g ai/ha): 0; Plant response rating (0 to 100 scale), Kochia (kochia (Kochia scoparia) [15]; 125 g ai/ha): 0; Plant response rating (0 to 100 scale), Pigweed ([16]; 31 g ai/ha): 0; Plant response rating (0 to 100 scale), Pigweed ([16]; 125 g ai/ha): 0; Plant response rating (0 to 100 scale), Barnyardgrass ([17]; 31 g ai/ha): 0; Plant response rating (0 to 100 scale), Barnyardgrass ([17]; 125 g ai/ha): 0; Plant response rating (0 to 100 scale), Foxtail, Green (Foxtail, Green [18]; 31 g ai/ha): 0; Plant response rating (0 to 100 scale), Foxtail, Green (Foxtail, Green [18]; 125 g ai/ha): 0 |
| CC(=O)Oc1c(C)nn(C)c(=O)c1-c1c(C(F)(F)F)ccc2cc(C)oc12 [Compound 48] | 0 | 0 | 70 | 90 | 0 | 0 | 0 | 30 | 80 | 80 | 50 | 70 | 70 | 100 | 0 | 20 | 0 | 10 | 0 | 10 | Rice plant response rating (0 to 100 scale, 0 is no effect, 100 is complete control) (rice (Oryza sativa)): 0; Barnyardgrass plant response rating (0 to 100 scale, 0 is no effect, 100 is complete control) [10]: 0; Ducksalad plant response rating (0 to 100 scale, 0 is no effect, 100 is complete control) [11]: 0; Sedge, Umbrella plant response rating (0 to 100 scale, 0 is no effect, 100 is complete control) [12]: 0; Plant response rating (0 to 100 scale), Ragweed ([13]; 31 g ai/ha): 0; Plant response rating (0 to 100 scale), Ragweed ([13]; 125 g ai/ha): 90; Plant response rating (0 to 100 scale), Ryegrass, It. ([14]; 31 g ai/ha): 10; Plant response rating (0 to 100 scale), Ryegrass, It. ([14]; 125 g ai/ha): 20; Plant response rating (0 to 100 scale), Kochia (kochia (Kochia scoparia) [15]; 31 g ai/ha): 10; Plant response rating (0 to 100 scale), Kochia (kochia (Kochia scoparia) [15]; 125 g ai/ha): 20; Plant response rating (0 to 100 scale), Pigweed ([16]; 31 g ai/ha): 20; Plant response rating (0 to 100 scale), Pigweed ([16]; 125 g ai/ha): 100; Plant response rating (0 to 100 scale), Barnyardgrass ([17]; 31 g ai/ha): 0; Plant response rating (0 to 100 scale), Barnyardgrass ([17]; 125 g ai/ha): 20; Plant response rating (0 to 100 scale), Foxtail, Green (Foxtail, Green [18]; 31 g ai/ha): 0; Plant response rating (0 to 100 scale), Foxtail, Green (Foxtail, Green [18]; 125 g ai/ha): 20 |
